In patent publication US8575158B2, “1-phenyl-substituted heterocyclyl derivatives and their use as prostaglandin D2 receptor modulators” (Actelion Pharmaceuticals Ltd., priority 2010, dated 2013) one finds IC50 data, which are given here for 39 molecules.

As usually defined, the pIC50 is the IC50 on a negative log10 scale, so that one unit is a factor of ten.

Molecules are shown by their SMILES. pIC50: −log10 of the molar value.

The target of this test is T1, hCRTH2 receptor (Homo sapiens, UniProt Q9Y5Y4).
T1 construct: expressed in transfected cells; host or cells: HEK293
T1 sequence (Q9Y5Y4 1-395): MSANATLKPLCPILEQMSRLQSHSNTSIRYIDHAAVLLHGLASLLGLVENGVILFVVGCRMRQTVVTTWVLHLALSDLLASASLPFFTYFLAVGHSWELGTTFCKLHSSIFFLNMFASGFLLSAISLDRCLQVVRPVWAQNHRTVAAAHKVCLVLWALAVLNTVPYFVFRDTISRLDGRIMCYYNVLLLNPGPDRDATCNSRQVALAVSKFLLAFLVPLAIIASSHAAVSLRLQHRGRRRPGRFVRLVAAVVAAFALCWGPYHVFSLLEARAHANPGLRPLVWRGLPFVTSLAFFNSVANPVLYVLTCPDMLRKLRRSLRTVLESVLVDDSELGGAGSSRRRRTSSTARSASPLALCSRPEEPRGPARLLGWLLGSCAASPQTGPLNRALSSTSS
The test can be described thus: Radioligand displacement assay (3H-PGD2) on hCRTH2 receptor membranes. The settings on record: antagonistic activity. The test is classed as binding.

[1] abbreviates: 3H-PGD2 radioligand displacement, HEK293-hCRTH2 membranes.
Where [2] appears, read: 3H-PGD2 displacement on HEK293-hCRTH2 membrane fragments.

As for `O=C(O)COc1ccc(Cl)cc1C1c2ccccc2CN1C(=O)C1CC1c1ccccc1F` (stereo not drawn) [Example 525, (4-Chloro-2-{2-trans-[2-(2-fluoro-phenyl)-cyclopropanecarbonyl]-2,3-dihydro-1H-isoindol-1-yl}-phenoxy)-acetic acid], under setting [1], the pIC50 is 7.87.
On the same count and under the same terms, in the case of `Cc1cnc(COC(=O)N2CCc3cc(F)ccc3[C@H]2c2cc(Cl)ccc2OCC(=O)O)s1` [Example 326, (S)-1-(2-Carboxymethoxy-5-chloro-phenyl)-6-fluoro-3,4-dihydro-1H-isoquinoline-2-carboxylic acid 5-methyl-thiazol-2-ylmethyl ester] it was 8.06.
As to `O=C(O)COc1ccc(S(=O)(=O)c2ccccc2)cc1C1c2ccccc2CCN1C(=O)OCc1ccccc1` (racemic) [Example 183], the pIC50 under setting [2] was 7.19.
Same read-out and setting: to `Cc1ccc(OCC(=O)O)c(C2c3ccccc3CCN2C(=O)OCc2ccccc2)c1` (racemic) [Example 3, (±)-1-(2-Carboxymethoxy-5-methyl-phenyl)-3,4-dihydro-1H-isoquinoline-2-carboxylic acid benzyl ester] belongs 7.20.
For the molecule `O=C(O)COc1ccc(Br)cc1C1c2ccccc2CCN1C(=O)OCc1ccccc1` (racemic) [Example 4, (±)-1-(5-Bromo-2-carboxymethoxy-phenyl)-3,4-dihydro-1H-isoquinoline-2-carboxylic acid benzyl ester], the pIC50 under setting [2] is 7.98.
Turning to `O=C(O)COc1ccc(F)cc1C1c2ccccc2CCN1C(=O)NCCc1ccccc1Cl` (racemic) [Example 204, (±)-(2-{2-[2-(2-Chloro-phenyl)-ethylcarbamoyl]-1,2,3,4-tetrahydro-isoquinolin-1-yl}-4-fluoro-phenoxy)-acetic acid], the pIC50 under setting [2] is 7.08.
On the same count and under the same terms, to `Cc1ccccc1CCC(=O)N1CCc2ccccc2C1c1cc(F)ccc1OCC(=O)O` (racemic) [Example 134, (±)-{4-Fluoro-2-[2-(3-o-tolyl-propionyl)-1,2,3,4-tetrahydro-isoquinolin-1-yl]-phenoxy}-acetic acid] belongs 7.51; to `O=C(O)COc1ccc(Cl)cc1C1c2ccccc2CCN1C(=O)OCc1c(F)cccc1Cl` (racemic) [Example 252], 8.40.
`O=C(O)COc1ccc(Cl)cc1[C@@H]1c2ccc(F)cc2CCN1C(=O)OCc1noc2ccccc12` [Example 348, (S)-1-(2-Carboxymethoxy-5-chloro-phenyl)-6-fluoro-3,4-dihydro-1H-isoquinoline-2-carboxylic acid benzo[d]isoxazol-3-ylmethyl ester] had a pIC50 under setting [1] of 9.40.
As for `O=C(O)COc1ccc(F)cc1C1c2ccccc2CCN1C(=O)Cc1ccc2c(c1)OCCO2` (racemic) [Example 50], the pIC50 under setting [2] was 6.74.
On the same count and under the same terms, to `O=C(O)COc1ccc(-n2ccnn2)cc1C1c2ccccc2CCN1C(=O)OCc1ccccc1` (racemic) [Example 223, (±)-1-(2-Carboxymethoxy-5-[1,2, 3]triazol-1-yl-phenyl)-3,4-dihydro-1H-isoquinoline-2-carboxylic acid benzyl ester] belongs 8.15.
With `NC(=O)c1ncccc1OCC(=O)N1CCc2ccccc2C1c1cc(Cl)ccc1OCC(=O)O` (racemic) [Example 479], the pIC50 under setting [1] was 6.70.
Turning to `CC(C)(C)COC(=O)N1CCc2ccccc2C1c1cc(F)ccc1OCC(=O)O` (racemic) [Example 166], the pIC50 under setting [2] was 6.92.
Same read-out and setting: to `Cc1noc(C)c1S(=O)(=O)NCC(=O)N1CCc2ccccc2C1c1cc(F)ccc1OCC(=O)O` (racemic) [Example 206] belongs 6.09.
Still for that read-out and setting: to `O=C(O)COc1ccc(Cl)cc1C1c2ccccc2CCN1C(=O)CCCc1ccc(Cl)cc1` (racemic) [Example 93, (±)-(4-Chloro-2-{2-[4-(4-chloro-phenyl)-butyryl]-1,2,3,4-tetrahydro-isoquinolin-1-yl}-phenoxy)-acetic acid] belongs 7.89.
With `Cc1cnn(COC(=O)N2CCc3ccccc3[C@H]2c2cc(Cl)ccc2OCC(=O)O)c1` [Example 292, (S)-1-(2-Carboxymethoxy-5-chloro-phenyl)-3,4-dihydro-1H-isoquinoline-2-carboxylic acid 4-methyl-pyrazol-1-ylmethyl ester], under setting [1], the pIC50 was 8.68.
Under setting [2], `O=C(O)COc1ccc(Cl)cc1C1c2ccccc2CCN1C(=O)CCOc1cccc(Cl)c1` (racemic) [Example 95, (±)-(4-Chloro-2-{2-[3-(3-chloro-phenoxy)-propionyl]-1,2,3,4-tetrahydro-isoquinolin-1-yl}-phenoxy)-acetic acid] had a pIC50 of 7.56.
Under setting [2], `O=C(O)COc1ccc(Cl)cc1C1c2ccccc2CCN1C(=O)Cn1cnc2ccccc21` (racemic) [Example 78, (±)-{2-[2-(2-Benzoimidazol-1-yl-acetyl)-1,2,3,4-tetrahydro-isoquinolin-1-yl]-4-chloro-phenoxy}-acetic acid] gave a negative logarithm of the IC50 (pIC50) of 7.29.
Same read-out and setting: to `O=C(O)COc1ccc(Cl)cc1C1c2ccc(F)c(F)c2CCN1C(=O)OCc1ccccc1` (racemic) [Example 15, (±)-1-(2-Carboxymethoxy-5-chloro-phenyl)-5,6-difluoro-3,4-dihydro-1H-isoquinoline-2-carboxylic acid benzyl ester] belongs 8.00; to `O=C(O)COc1ccc(Cl)cc1C1c2cccc(F)c2CCN1C(=O)OCc1ccccc1Cl` (racemic) [Example 175], 8.06; to `N#Cc1ccc(OCC(=O)O)c(C2c3ccccc3CCN2C(=O)OCc2ccccc2)c1` (racemic) [Example 219, (±)-1-(2-Carboxymethoxy-5-cyano-phenyl)-3,4-dihydro-1H-isoquinoline-2-carboxylic acid benzyl ester], 8.33.
Under setting [1], `COc1cc2c(ccn2CCC(=O)N2CCc3ccccc3C2c2cc(Cl)ccc2OCC(=O)O)cc1Cl` (racemic) [Example 375] gave a pIC50 of 7.09.
Same read-out and setting: in the case of `O=C(O)COc1ccc(Cl)cc1C1c2ccc(F)cc2CCN1C(=O)CCCc1ccccc1F` (racemic) [Example 436] it was 8.24.
On to `Cc1ccccc1CCC(=O)N1Cc2ccccc2C1c1cc(Cl)ccc1OCC(=O)O` (racemic) [Example 506], for which the pIC50 under setting [1] was 7.10.
Regarding `O=C(O)COc1ccc(Cl)cc1C1c2ccccc2CCN1C(=O)COc1ccccc1-c1ccccc1` (racemic) [Example 86, (±)-(2-{2-[2-(Biphenyl-2-yloxy)-acetyl]-1,2,3,4-tetrahydro-isoquinolin-1-yl}-4-chloro-phenoxy)-acetic acid], the negative logarithm of the IC50 (pIC50) under setting [2] was 6.37.
As for `N#Cc1ccc2c(ccn2CCC(=O)N2CCc3ccccc3C2c2cc(Cl)ccc2OCC(=O)O)c1` (racemic) [Example 371], the pIC50 under setting [1] is 7.27.
Under setting [2], `N#Cc1ccc(OCC(=O)O)c([C@@H]2c3ccccc3CCN2C(=O)OCc2ccccc2)c1` [Example 25, (S)-1-(2-Carboxymethoxy-5-cyano-phenyl)-3,4-dihydro-1H-isoquinoline-2-carboxylic acid benzyl ester] had a pIC50 of 8.60.
For the molecule `Cc1ccccc1CCC(=O)N1CCc2cc(F)ccc2C1c1cc(Cl)ccc1OCC(=O)O` (racemic) [Example 435], under setting [1], the pIC50 is 7.33.
On the same count and under the same terms, to `O=C(O)COc1ccc(Cl)cc1[C@@H]1c2ccc(F)c(F)c2CCN1C(=O)OCc1noc2ccccc12` [Example 323, (S)-1-(2-Carboxymethoxy-5-chloro-phenyl)-5,6-difluoro-3,4-dihydro-1H-isoquinoline-2-carboxylic acid benzo[d]isoxazol-3-ylmethyl ester] belongs 8.92.
Regarding `O=C(O)COc1ccc(F)cc1C1c2ccc(F)c(Br)c2CCN1C(=O)OCc1ccccc1` (racemic) [Example 40, (±)-5-Bromo-1-(2-carboxymethoxy-5-fluoro-phenyl)-6-fluoro-3,4-dihydro-1H-isoquinoline-2-carboxylic acid benzyl ester], the pIC50 under setting [2] is 7.64.
`COc1ccc2ccn(CCC(=O)N3CCc4ccccc4C3c3cc(Cl)ccc3OCC(=O)O)c2c1` (racemic) [Example 390] had a pIC50 under setting [1] of 8.12.
`Cc1cccc(OCCC(=O)N2CCc3ccccc3C2c2cc(Cl)ccc2OCC(=O)O)c1` (racemic) [Example 94, (±)-{4-Chloro-2-[2-(3-m-tolyloxy-propionyl)-1,2,3,4-tetrahydro-isoquinolin-1-yl]-phenoxy}-acetic acid] had a pIC50 under setting [2] of 7.79.
Same read-out and setting: in the case of `O=C(O)COc1ccc(F)cc1C1c2ccc(F)cc2CCN1C(=O)OCc1ccccc1` (racemic) [Example 163] it was 8.38; in that of `CC(C)c1ccc(OCC(=O)O)c(C2c3ccccc3CCN2C(=O)OCc2ccccc2)c1` (racemic) [Example 22, (±)-1-(2-Carboxymethoxy-5-isopropyl-phenyl)-3,4-dihydro-1H-isoquinoline-2-carboxylic acid benzyl ester], 6.32; in that of `Cc1ccccc1COC(=O)N1CCc2ccccc2C1c1cc(Cl)ccc1OCC(=O)O` (racemic) [Example 235], 8.25.
Same read-out and setting: in the case of `O=C(O)COc1ccc(Cl)cc1C1c2cccc(F)c2CCN1C(=O)CCCc1ccccc1` (racemic) [Example 121, (±)-{4-Chloro-2-[5-fluoro-2-(4-phenyl-butyryl)-1,2,3,4-tetrahydro-isoquinolin-1-yl]-phenoxy}-acetic acid] it was 7.28.
With `O=C(O)COc1ccc(Cl)cc1C1c2ccccc2CCN1C(=O)COc1ccc(Cl)nc1` (racemic) [Example 472], the pIC50 under setting [1] is 6.96.
Regarding `Cc1ncccc1OCC(=O)N1CCc2ccccc2C1c1cc(Cl)ccc1OCC(=O)O` (racemic) [Example 469], the pIC50 under setting [1] is 6.88.
`O=C(O)COc1ccc(Cl)cc1C1c2ccccc2CCN1C(=O)CCn1nc(Cl)c2ccccc21` (racemic) [Example 383]: the pIC50 under setting [1] was 8.07.
